Reference: ChEMBL document CHEMBL5143637, “Design, synthesis and antibacterial activity against pathogenic mycobacteria of conjugated hydroxamic acids, hydrazides and O-alkyl/O-acyl protected hydroxamic derivatives” (Bioorg Med Chem Lett, 2022)
Values after ≈ are worked out from the molar mass of the structure shown.

What was measured:
[1] = Cytotoxicity against C57BL/6 mouse BMDM cells assessed as reduction in cell viability measured after 24 hrs by resazurin dye based assay; format: toxicity; conditions: C57BL/6, mouse, BMDM cells (bone marrow-derived macrophages)
[2] = tested on: Mycobacterium tuberculosis; assay: Antimycobacterial activity against Mycobacterium tuberculosis mc2 6230 assessed as inhibition of mycobacterial growth incubated for 10 to 14 days by resazurin microtiter assay; format: functional; conditions: time 10-14 day
[3] = tested on: Mycobacteroides abscessus; assay: Antimycobacterial activity against Mycobacterium abscessus CIP104536T with rough morphotype assessed as inhibition of mycobacterial growth incubated for 3 to 5 days by resazurin microtiter assay; format: functional; conditions: time 3-5 day
[4] = tested on: Mycobacteroides abscessus; assay: Antimycobacterial activity against Mycobacterium abscessus CIP104536T with smooth morphotype assessed as inhibition of mycobacterial growth incubated for 3 to 5 days by resazurin microtiter assay; format: functional; conditions: time 3-5 day
Mycobacterium marinum = assay: Antimycobacterial activity against Mycobacterium marinum ATCC BAA-535/M assessed as inhibition of mycobacterial growth incubated for 10 to 14 days by resazurin microtiter assay; format: functional; conditions: time 10-14 day

Row | Compound | CC50 at 24 h [1] [µg/mL] | MIC50 [2] [µg/mL] | MIC50 [3] [µg/mL] | MIC50 [4] [µg/mL] | MIC50 (Mycobacterium marinum) [µg/mL] | MIC90 (Mycobacterium marinum) [µg/mL] | MIC90 [2] [µg/mL] | MIC90 [4] [µg/mL] | MIC90 [3] [µg/mL]
1 | O=C(/C=C/C=C/c1ccc(F)cc1)NO | < 10 | > 100 | > 100 | > 100 | 18.1 (≈ 87.4 µM) | > 100 | – | – | –
2 | COc1ccc(/C=C/C=C/C(=O)NN)cc1 | 120 (≈ 550 µM) | 18.1 (≈ 82.9 µM) | > 100 | > 100 | 12.6 (≈ 57.7 µM) | 13.3 (≈ 60.9 µM) | 46.7 (≈ 214 µM) | – | –
3 | COc1ccc(/C=C/C=C/C(=O)NO)cc1 | < 10 | 48 (≈ 219 µM) | > 100 | > 100 | 14.8 (≈ 67.5 µM) | 62.1 (≈ 283 µM) | > 100 | – | –
4 | NNC(=O)/C=C/C=C/c1cccc(F)c1 | > 125 | > 100 | > 100 | > 100 | > 100 | – | – | – | –
5 | NNC(=O)/C=C/c1ccc(F)cc1 | < 10 | > 100 | > 100 | > 100 | 60.5 (≈ 336 µM) | 80.4 (≈ 446 µM) | – | – | –
6 | CCCCCC(=O)ONC(=O)/C=C/c1ccc(OC)cc1 | > 125 | 32.8 (≈ 113 µM) | > 100 | 63 (≈ 216 µM) | 21.2 (≈ 72.8 µM) | 46.7 (≈ 160 µM) | 61.4 (≈ 211 µM) | 76.5 (≈ 263 µM) | –
7 | CCCCCCCCCC(=O)ONC(=O)/C=C/C=C/c1ccc(F)cc1 | > 125 | 20.3 (≈ 56.2 µM) | > 100 | > 100 | 13.2 (≈ 36.5 µM) | 17.3 (≈ 47.9 µM) | 34.7 (≈ 96 µM) | – | –
8 | O=C(/C=C/c1cccc(C(F)(F)F)c1)NO | < 10 | 12.8 (≈ 55.4 µM) | 7.8 (≈ 33.7 µM) | 72.5 (≈ 314 µM) | 7.1 (≈ 30.7 µM) | 47.7 (≈ 206 µM) | > 100 | 74.8 (≈ 324 µM) | 16 (≈ 69.2 µM)
9 | O=C(/C=C/C=C/c1ccc(-c2ccccc2)cc1)NO | > 125 | > 100 | 6.9 (≈ 26 µM) | 31.8 (≈ 120 µM) | > 100 | – | – | > 100 | 7.5 (≈ 28.3 µM)
10 | COc1ccc(/C=C/C(=O)NO)cc1 | < 10 | 23.1 (≈ 120 µM) | > 100 | > 100 | 58.2 (≈ 301 µM) | 89.5 (≈ 463 µM) | 24.3 (≈ 126 µM) | – | –
11 | CCCCCCCCCCOc1ccc(/C=C/C=C/C(=O)NO)cc1 | > 125 | > 100 | > 100 | > 100 | > 100 | – | – | – | –
12 | CCCC(=O)ONC(=O)/C=C/C=C/c1ccc(F)cc1 | > 125 | 11.9 (≈ 42.9 µM) | > 100 | > 100 | 7.9 (≈ 28.5 µM) | 22.4 (≈ 80.8 µM) | 59.3 (≈ 214 µM) | – | –
13 | O=C(/C=C/c1ccncc1)NO | < 10 | 35.1 (≈ 214 µM) | > 100 | > 100 | 75 (≈ 457 µM) | > 100 | 42.9 (≈ 261 µM) | – | –
14 | O=C(/C=C/c1ccc2c(c1)OCO2)NO | 34 (≈ 164 µM) | 31.9 (≈ 154 µM) | > 100 | > 100 | > 100 | – | > 100 | – | –
15 | CCCCCC(=O)ONC(=O)/C=C/C=C/c1ccc(F)cc1 | < 10 | 21.6 (≈ 70.7 µM) | > 100 | > 100 | 19.8 (≈ 64.8 µM) | 92.9 (≈ 304 µM) | 40.7 (≈ 133 µM) | – | –
16 | NNC(=O)/C=C/C=C/c1ccc(F)cc1 | > 125 | 27.4 (≈ 133 µM) | > 100 | > 100 | 20.6 (≈ 99.9 µM) | > 100 | > 100 | – | –
